Where two headings read alike, the source gives them in different places. Some results are limits rather than exact numbers.

Eleven compounds from patent publication US20260092061A1, “COMPOUNDS FOR TARGETED PROTEIN DEGRADATION” (Amphista Therapeutics Limited, priority 2022, published 2026) can be followed below.

One test deals with T1, BRD7 (Homo sapiens, UniProt Q9NPI1).
T1 construct: HiBiT-BRD7 KI HEK293 (LgBiT) Cells (Promega CS3023410); host or cells: HEK293 (LgBiT), HiBiT knock-in at the BRD7 locus
T1 sequence (Q9NPI1 1-651): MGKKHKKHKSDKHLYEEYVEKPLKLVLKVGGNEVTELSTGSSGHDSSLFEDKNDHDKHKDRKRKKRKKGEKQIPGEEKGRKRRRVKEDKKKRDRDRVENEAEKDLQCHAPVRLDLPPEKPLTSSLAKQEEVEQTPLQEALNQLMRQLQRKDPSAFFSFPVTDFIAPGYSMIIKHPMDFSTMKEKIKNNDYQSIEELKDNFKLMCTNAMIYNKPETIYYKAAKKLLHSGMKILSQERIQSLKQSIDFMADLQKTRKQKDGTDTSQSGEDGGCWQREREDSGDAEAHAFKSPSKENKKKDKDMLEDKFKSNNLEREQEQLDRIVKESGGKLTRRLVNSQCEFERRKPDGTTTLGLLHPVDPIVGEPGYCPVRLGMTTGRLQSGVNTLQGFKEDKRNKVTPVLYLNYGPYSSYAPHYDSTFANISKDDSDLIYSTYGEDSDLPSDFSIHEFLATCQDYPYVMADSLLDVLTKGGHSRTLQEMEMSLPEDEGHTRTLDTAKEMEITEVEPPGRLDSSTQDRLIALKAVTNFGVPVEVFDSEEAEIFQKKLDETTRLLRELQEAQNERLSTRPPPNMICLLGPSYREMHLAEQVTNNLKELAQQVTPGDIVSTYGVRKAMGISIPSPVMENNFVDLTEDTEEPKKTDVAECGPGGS
The test is described as follows: BRD7 degradation, HiBiT-BRD7 KI HEK293 (LgBiT) cells, NanoGlo Lytic Endpoint assay (Assay Protocol 1). The test is classed as cell-based. To be noted: for Dmax / Dmax at 1 µM: HEK293; for Dmax / DC50: Table 5, assay protocol 1; for Dmax at 1 µM: Table 3, assay 1, 1 μM compound at 5 h of treatment. The method, then: HiBiT-BRD9 KI HEK293 (LgBiT) Cells (Promega CS3023412) were seeded at 8000 cells per well (38 μL) in sterile white bottom 384 well plates (Invitrogen 164610 or Greiner 781080) and incubated overnight at 37° C. with 5% CO2. The next day, compounds were prepared at 1000× final concentration in DMSO and diluted 1:100 in media (DMEM PAN Biotech P04-03550+10% FBS ATCC 302025). […] The lytic buffer was equilibrated to room temperature for 10-15 min before lytic reagent was prepared by adding substrate (1:50) and LgBit protein (1:100) in lytic buffer. 40 μL lytic reagent mix was added to each well of the cel plate and plates were centrifuged briefly at ˜50g. Plates were incubated with shaking (350 RPM) for 12-24 min before reading using the LUM plus module of a BMG Pherastar FSX. Data was analysed using Dotmatics software and % BRD9 remaining was calculated by normalisation to average data from high and low control wells (DMSO treated cels and no cells respectively).
BRD7 degradation was determined in line with the procedure as outlined above for BRD9, with the exception that HiBiT-BRD7 KI HEK293 (LgBiT) Cells (Promega CS3023410) were seeded at 8000 cells per well (CPW) (36 uL) in sterile white bottom 384 well plates (Invitrogen 164610 or Greiner 781080) and incubated overnight at 37° C. with 5% CO2.

The target in the next test is T2, BRD9 (Homo sapiens, UniProt Q9H8M2).
T2 sequence (Q9H8M2 1-597): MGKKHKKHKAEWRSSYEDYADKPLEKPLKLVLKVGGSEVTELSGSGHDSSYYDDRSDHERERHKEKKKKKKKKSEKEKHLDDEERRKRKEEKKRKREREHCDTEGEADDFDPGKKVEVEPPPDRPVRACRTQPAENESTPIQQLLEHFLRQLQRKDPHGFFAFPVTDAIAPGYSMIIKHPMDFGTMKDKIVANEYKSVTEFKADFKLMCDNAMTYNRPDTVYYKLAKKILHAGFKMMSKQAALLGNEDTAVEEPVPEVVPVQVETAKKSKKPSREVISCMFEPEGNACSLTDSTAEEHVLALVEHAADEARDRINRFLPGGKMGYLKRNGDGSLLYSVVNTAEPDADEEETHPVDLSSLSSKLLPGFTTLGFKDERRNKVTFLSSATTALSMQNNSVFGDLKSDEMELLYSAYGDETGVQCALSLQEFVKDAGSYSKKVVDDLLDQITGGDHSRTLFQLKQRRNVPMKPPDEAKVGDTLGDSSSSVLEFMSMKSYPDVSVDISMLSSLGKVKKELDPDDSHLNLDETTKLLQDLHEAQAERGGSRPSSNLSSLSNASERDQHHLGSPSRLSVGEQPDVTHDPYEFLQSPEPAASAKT
The test is described as follows: Degradation of BRD9 (IF), immunofluorescence in MV4-11 cells, 24 hours (Assay Protocol 2). The format is cell-based. Also on record: A suspension of MV4-11 cells (ATCC CRL-9591) was prepared; host or cells: MV4-11. The essentials: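 MV4-11 cells treated with compound 24 h at 37° C., then fixed, permeabilised and immunostained for BRD9 (anti-BRD9 E4Q3F, Alexa 647 secondary, Hoechst counterstain). High-content imaging quantified nuclear BRD9 signal; % BRD9 remaining normalised to DMSO and 100 nM CFT-8634 controls.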

The mark [1] stands for this setting: Table 4, BRD9 degradation, determined according to Assay Protocol 2, read-out: DC50^2.
Setting [2] is: MV4-11, 24 h, Table 2, BRD9 degradation (IF), Assay Protocol 2, MV4-11 cells, read-out: Assay 2 DCmax.
[3] abbreviates: Table 2, BRD9 degradation (IF), Assay Protocol 2, MV4-11 cells, read-out: Assay 2 DC50.
Where [4] appears, read: MV4-11, Table 4, BRD9 degradation, determined according to Assay Protocol 2, read-out: Dmax^2.

For `COc1cc(-c2cn(C)c(=O)c(C)c2C)cc(OC)c1CN1CC2CC1CN2C(=O)/C(C#N)=C/c1nccs1` (mixture of isomers) [BRD9i, (E/Z)-2-(5-(2,6-dimethoxy-4-(1,4,5-trimethyl-6-oxo-1,6-dihydropyridin-3-yl)benzyl)-2,5-diazabicyclo[2.2.1]heptane-2-carbonyl)-3-(thiazol-2-yl)acrylonitrile], at BRD7, the Dmax lay within 25 to 40% and the DC50 was above 1000 nM. Further, the DC50 on BRD9 (setting [1]) was below 25 nM.

`COc1cc(-c2cn(C)c(=O)c3cnccc23)cc(OC)c1CN(C)Cc1cccc2c1CCN(C(=O)/C(C#N)=C/c1cccc(Br)n1)C2C` (mixture of isomers) [Compound A50] had a Dmax at 1 µM at BRD7 of 25 to 40%. In addition, the Dmax on BRD9 (setting [2]) was above 75%. Further, on BRD9 (setting [3]), the DC50 lay within 1.25 to 10 nM.

As for `COc1cc(-c2cn(C)c(=O)c(C)c2C)cc(OC)c1CN(C)C1CCN(C(=O)/C(C#N)=C/C(C)(C)C)CC1` [BRD9d, (E/Z)-2-(4-((2,6-dimethoxy-4-(1,4,5-trimethyl-6-oxo-1,6-dihydropyridin-3-yl)benzyl)(methyl)amino)piperidine-1-carbonyl)-4,4-dimethylpent-2-enenitrile], the Dmax is below 25% at BRD7 and 50 to 70% at BRD9 (setting [4]). Besides, the DC50 was above 1000 nM at BRD7 and above 200 nM on BRD9 (setting [1]).

For the compound `COc1cc(-c2cn(C)c(=O)c(C)c2C)cc(OC)c1CN1CC2CC(C1)N2Cc1cccc2c1CCN(C(=O)/C(C#N)=C/C(C)(C)C)C2C` (mixture of isomers) [Compound A71, (E/Z)-2-(5-((3-(2,6-dimethoxy-4-(1,4,5-trimethyl-6-oxo-1,6-dihydropyridin-3-yl)benzyl)-3,6-diazabicyclo[3.1.1]heptan-6-yl)methyl)-1-methyl-1,2,3,4-tetrahydroisoquinoline-2-carbonyl)-4,4-dimethylpent-2-enenitrile], at BRD7, the Dmax at 1 µM lay within 40 to 70%. The Dmax on BRD9 (setting [2]) was above 75%. On BRD9 (setting [3]), the DC50 was below 1.25 nM.

In turn, `COc1cc(-c2cn(C)c(=O)c(C)c2C)cc(OC)c1CN1CCN(Cc2cccc3c2CCN(C(=O)/C(C#N)=C/c2cccc(Br)n2)C3C)CC1` (mixture of isomers) [Compound A16, (E/Z)-3-(6-bromopyridin-2-yl)-2-(5-((4-(2,6-dimethoxy-4-(1,4,5-trimethyl-6-oxo-1,6-dihydropyridin-3-yl)benzyl)piperazin-1-yl)methyl)-1-methyl-1,2,3,4-tetrahydroisoquinoline-2-carbonyl) acrylonitrile] showed a Dmax at 1 µM on BRD7 of 25 to 40%. The Dmax on BRD9 (setting [2]) lay within 40 to 70%. Moreover, at BRD9 (setting [3]), the 50% degradation concentration (DC50) is below 1.25 nM.

Compound `COc1cc(-c2cn(C)c(=O)c(C)c2C)cc(OC)c1CN1CCN(Cc2cccc3c2CCN(C(=O)/C(C#N)=C/c2nccs2)C3C)CC1` (mixture of isomers) [Compound A4, (E/Z)-2-(5-((4-(2,6-dimethoxy-4-(1,4,5-trimethyl-6-oxo-1,6-dihydropyridin-3-yl)benzyl)piperazin-1-yl)methyl)-1-methyl-1,2,3,4-tetrahydroisoquinoline-2-carbonyl)-3-(thiazol-2-yl)acrylonitrile] yielded a Dmax at 1 µM at BRD7 below 25%. Moreover, on BRD9 (setting [2]), the Dmax was 70 to 75%. Also, at BRD9 (setting [3]), the DC50 is below 1.25 nM.

With `COc1cc(-c2cn(C)c(=O)c(C)c2C)cc(OC)c1CN1C2CC1CN(C(=O)/C(C#N)=C/c1cccc(Br)n1)C2` (mixture of isomers) [BRD9o, (E/Z)-3-(6-bromopyridin-2-yl)-2-(6-(2,6-dimethoxy-4-(1,4,5-trimethyl-6-oxo-1,6-dihydropyridin-3-yl)benzyl)-3,6-diazabicyclo[3.1.1]heptane-3-carbonyl)acrylonitrile], the Dmax at BRD7 is 25 to 40%. Moreover, the results for the DC50 at BRD7 and on BRD9 (setting [1]) were above 1000 nM and 25 to 200 nM, respectively.

`COc1cc(-c2cn(C)c(=O)c(C)c2C)cc(OC)c1CN1CCCN(C(=O)/C(C#N)=C/C(C)(C)C)CC1` [BRD9c, (E/Z)-2-(4-(2,6-dimethoxy-4-(1,4,5-trimethyl-6-oxo-1,6-dihydropyridin-3-yl)benzyl)-1,4-diazepane-1-carbonyl)-4,4-dimethylpent-2-enenitrile]: the Dmax at BRD7 is below 25%; at BRD9 (setting [4]) it was above 70%; on BRD9 (MV4-11, Table 5, cells marked *: measured in accordance with Assay Protocol 2, read-out: BRD9 Dmax (%)), above 75%. In addition, the DC50 on BRD7 was above 1000 nM; on BRD9 (setting [1]), below 25 nM; on BRD9 (Table 5, cells marked *: measured in accordance with Assay Protocol 2, read-out: BRD9 DC50) it was below 1.25 nM.

On to `COc1cc(-c2cn(C)c(=O)c(C)c2C)cc(OC)c1CN1CCN(C(=O)/C(C#N)=C/c2cccc(Br)n2)CC1` [BRD9h, (E/Z)-3-(6-bromopyridin-2-yl)-2-(4-(2,6-dimethoxy-4-(1,4,5-trimethyl-6-oxo-1,6-dihydropyridin-3-yl)benzyl)piperazine-1-carbonyl)acrylonitrile], for which the Dmax at BRD7 is 25 to 40%; at BRD9 (setting [4]), above 70%. Moreover, the DC50 on BRD7 was above 1000 nM; at BRD9 (setting [1]), below 25 nM.

`COc1cc(-c2cn(C)c(=O)c3cnccc23)cc(OC)c1CN1CCN(Cc2cccc3c2CCN(C(=O)/C(C#N)=C\c2ncc(C)s2)C3C)CC1` (mixture of isomers) [Compound A10, (E/Z)-2-(5-((4-(2,6-dimethoxy-4-(2-methyl-1-oxo-1,2-dihydro-2,7-naphthyridin-4-yl)benzyl)piperazin-1-yl)methyl)-1-methyl-1,2,3,4-tetrahydroisoquinoline-2-carbonyl)-3-(5-methylthiazol-2-yl)acrylonitrile] had a Dmax at 1 µM at BRD7 of 25 to 40%. Besides, the Dmax on BRD9 (setting [2]) was 40 to 70%. The half-maximal degradation concentration (DC50) at BRD9 (setting [3]) was below 1.25 nM.

At BRD7, `COc1cc(-c2cn(C)c(=O)c(C)c2C)cc(OC)c1CN1CCCN(Cc2cccc3c2CCN(C(=O)/C(C#N)=C/C(C)(C)C)C3C)CC1` (mixture of isomers) [Compound A72, (E/Z)-2-(5-((4-(2,6-dimethoxy-4-(1,4,5-trimethyl-6-oxo-1,6-dihydropyridin-3-yl)benzyl)-1,4-diazepan-1-yl)methyl)-1-methyl-1,2,3,4-tetrahydroisoquinoline-2-carbonyl)-4,4-dimethylpent-2-enenitrile] came in with a Dmax at 1 µM below 25%. The Dmax on BRD9 (setting [2]) lay within 40 to 70%. At BRD9 (setting [3]), the DC50 fell in the range of 10 to 25 nM.
